According to patent US20100015245A1, “Combination of Copper Cations with Peroxides or Quaternary Ammonium Compounds for the Treatment of Biofilms” (priority 2008, published 2010):
Where “and” joins values, the source holds several entries; their conditions need not be identical. Identical values can stand only once. Like-named read-outs stand apart in the source and are kept apart here.

Legend:
[1] = tested on: P. aeruginosa ATCC 15442 biofilms; assay: High-throughput biofilm susceptibility screening with checkerboard plates (Calgary Biofilm Device), OD650 endpoint; assay type: cell-based, Pseudomonas aeruginosa
[2] = tested on: P. aeruginosa ATCC 27853 biofilms; assay: Confocal-laser scanning microscopy (CLSM) with Live/Dead staining of biofilms; assay type: cell-based, Pseudomonas aeruginosa; details: 8 mM Cu^2+ and/or 200 ppm Polycide®, qualitative
Protocol: Confocal-laser scanning microscopy (CLSM). Pegs were broken from the lid of the CBD using needle nose pliers. Cell viability staining of P. aeruginosa ATCC 27853 biofilms using the Live/Dead® BacLight™ Kit (Molecular Probes, Burlington, ON, Canada) was carried out according to the method as previously described (Harrison et al., 2007). Here, biofilms exposed to metals and/or biocides were rinsed twice with 0.9% saline and then stained with Syto-9 and propidium iodide at 30° C. for 30 min. Fluorescently labeled biofilms were placed in two drops of 0.9% saline on the surface of a glass coverslip. These pegs were examined using a Leica DM IRE2 spectral confocal and multiphoton microscope with a Leica TCS SP2 acoustic optical beam splitter (AOBS) (Leica Microsystems, Richmond Hill, ON, Canada) as previously described (Harrison el al., 2007). To eliminate artefacts associated with single wavelength excitation, Live/Dead® stained samples were sequentially scanned, frame-by-frame, first at 488 nm and then at 543 nm. Fluorescence emission was then sequentially collected in the green and red regions of the spectrum. […]
Up to this point, the inventors have assessed the antimicrobial action of Cu^2+ and Polycide® using viable cell counting; however, there is an alternate method of assessing biofilm cell survival: CLSM in conjunction with Live/Dead® staining. […]

[3] = tested on: microaerobic cultures of P. aeruginosa ATCC 15442; assay: Cell survival of microaerobic (anaerobic) planktonic cultures; assay type: cell-based, Pseudomonas aeruginosa; details: 1 mM CuSO4 and/or 25 ppm Polycide®, 48 h at 37° C., BHI broth
Protocol: (§1) FIGS. 6A-C. Cell survival and nitrate (NO3) reduction by anaerobic P. aeruginosa ATCC 15442 cultures grown in the presence of Cu^2+ and Polycide®, alone and in combination. An aerobic starter culture was grown overnight in TSB and this was diluted 1 in 500 to get a starting cell count of 1×10^7 CFU/mL for anaerobic cultures. These cells were grown in BHI broth, with and without the addition of 1 mM KNO3, for 6 h prior to the addition of 1 mM CuSO4, 25 ppm Polycide , or 1 mM CuSO4+25 ppm Polycide®. Following an additional 48 h incubation at 37° C., aliquots were removed to determine (FIG. 6A) mean viable cell counts and (FIG. 6B) log-killing. Remaining cells from anaerobic cultures were lysed and fractionated into cytosolic and membrane components. The cytosolic components were assayed for (FIG. 6C) nitrate reductase (NR) activity. In this figure, each bar represents the mean and standard deviation of 3 to 8 independent replicates. NR activity calculations were corrected for baseline shifts in spectrophotometric measurements caused by the presence of oxygen in water, which reacts with reduced methyl viologen over time.
Strains and growth media. All of the microbial strains used in this study are summarized in TABLE 1 and all were stored at −70° C. in Microbank™ vials (ProLab Diagnostics, Toronto, Canada) according to the manufacturer's directions. […]

nitrate reductase (NR) = assay: Nitrate reductase activity of cytosolic fractions of treated cultures (methyl viologen assay); assay type: biochemical, Pseudomonas aeruginosa; details: cells grown with 1 mM CuSO4 and/or 25 ppm Polycide®
Protocol: as §1
Protein fractionation and nitrate reduction assays. […] Nitrate reductase activity was determined spectrophotometrically at 575 nm for cytoplasmic fractions, using methyl viologen as an electron donor, as previously described (Jones et al., 1977; Magalon et al., 1998).

[4] = 5 min exposure, double distilled water, single agent, median
[5] = 30 min exposure, double distilled water, single agent, median
[6] = 24 h exposure, 10% tryptic soy broth/0.9% NaCl, single agent, median

## CC(C)O [Isopropyl Alcohol, Isopropyl alcohol]
[1]; [4]
  Biofilm minimum bactericidal concentration (MBCb): 0.50%
[1]; [5]
  Biofilm minimum bactericidal concentration (MBCb): 0.50%
[1]; [6]
  Biofilm minimum bactericidal concentration (MBCb): 0.50%

## O=S(=O)([O-])[O-].[Cu+2] [Cu^2+, cupric sulfate]
[1]
  Biofilm minimum bactericidal concentration (MBCb): >32 mM and 32 mM
[2]
  Bacterial cell survival in biofilms by Live/Dead staining: killed a significant portion of the bacterial population
[3]
  Effect on microaerobic cultures (viable cell counts, log-killing): bacteriostatic
Nitrate reductase (NR)
  Nitrate reduction capacity / NR activity of cell lysates: significantly reduced capacity for nitrate reduction

## O=[Se]([O-])[O-].[Na+].[Na+] [SeO3^2−, Sodium selenite]
[1]; [4]
  Biofilm minimum bactericidal concentration (MBCb): >16 mM
[1]; [5]
  Biofilm minimum bactericidal concentration (MBCb): >16 mM
[1]; [6]
  Biofilm minimum bactericidal concentration (MBCb): >16 mM

## O=[N+]([O-])[O-].[Ag+] [Ag^+, silver nitrate]
[1]; [4]
  Biofilm minimum bactericidal concentration (MBCb): >19 mM
[1]; [5]
  Biofilm minimum bactericidal concentration (MBCb): >19 mM
[1]; [6]
  Biofilm minimum bactericidal concentration (MBCb): >19 mM

## O=S(=O)([O-])[O-].[Zn+2] [Zn^2 +, zinc sulfate]
[1]
  Biofilm minimum bactericidal concentration (MBCb): >31 mM
